1 compound from US8148392B2, “2-indolyl imidazo [4,5-d] phenanthroline derivatives and their use in the treatment of cancer” (Lorus Therapeutics Inc., priority 2005, dated 2012) can be followed below.

Experiment [1] deals with panel of 60 human cancer cell lines. The experiment in a line: NCI DTP in vitro anticancer screen, panel of 60 human cancer cell lines. It is filed as cell-based. The procedure: For example, the following methodology, which is currently employed by the NCI, can be used to assess the GI50 of a candidate compound of Formula I in the selected cancer cell lines. Briefly, cell suspensions are diluted (5000-40,000 cells per well) and 100 μL of the diluted cell suspension is added into 96-well microtiter plates. Inoculates are allowed a preincubation period of 24 h at 37° C. for stabilization. Dilutions at twice the intended test concentration of the candidate compound are added at time zero in 100 μL aliquots to the microtiter plate wells. Test compounds are generally evaluated at five 10-fold dilutions. In routine testing, the highest well concentration is usually 10E-4 M, but this may be adjusted depending on the compound being tested. The cells are incubated with the test compound for 48 h in 5% CO2 atmosphere and 100% humidity. The cells are then assayed by using the sulforhodamine B assay (see, for example, Skehan, P., et al. (1990) JNCI, J. Natl. Cancer Inst. 82, 1107-1112; and Chen, S. F., et al. (1990) Proc. Am. Assoc. Cancer Res. 31, A2644) employing a plate reader which can be used to read the optical densities.
Compounds 2 and 3 were evaluated for their antiproliferative effects in a panel of 60 human cancer cell lines as part of the in vitro anticancer screening services provided by the DTP (Developmental Therapeutics Program) of the US National Cancer Institute (NCI).
Analysis of the effects of compounds of Formula I on in vitro and in vivo cell growth inhibition were performed utilizing the methods as described in the preceding Examples. As shown in Example 12, cell growth inhibition by the parental compound 3 was screened by National Cancer Institute 60-cell line assay and leukemia, non-small cell cancer, colon cancer, renal cancer and prostate cancer panels were especially sensitive to compound 3.

The subject of experiment [2] is MT-1 isolated from rabbit liver. The experiment in a line: Chelation of zinc from metallothionein MT-1, PAR colorimetric zinc assay. Format: biochemical. The conditions noted are these: 25 μM MT, compound 0.15 to 60 μM, 15 min. The text has this:
Intracellular zinc exists as a labile pool, loosely bound to storage proteins metallothioneins (MT), which store up to 7 or 8 zinc per molecule. The labile zinc pool donates zinc to enzymes or transcription factors, which require reversible binding with zinc for their full activity (Tapiero and Tew (2003) Biomed Pharmacother 57(9): 399-411). The efficiency of compound 3 to remove zinc from MT was investigated. MT-1 isolated from rabbit liver, containing mainly MT-1a and MT-2e with ˜7 zinc per molecule in ≧95% of MT was purchased from Alexis Biochemicals (Lausen, Switzerland). The content of zinc in MT was measured in vitro using 4-(2-pyridylazo) resorcinol (PAR) colorimetric zinc assay as described in the preceding Examples. The change in absorbance of PAR after PAR-zinc ion complex formation was measured at 500 nm (Dinkova-Kostova et al., (2005) Biochemistry 44(18): 6889-6899). To determine chelation of zinc from MT-1 by compound 3 in vitro, MT-125 μM in […] volume of 0.2M Tris-HCl, pH 7.5 was added to 96-well plate. Compound 3 (0.15 to 60 μM) in 80% acetonitrile/20% DMSO was added to MT-1 for 15 min at room temperature. PAR (200 μM in 0.2M Tris-HCl, pH 7.5) was added and the color development of PAR-zinc complex was measured by a multi-well spectrophotometer at 500 nm as shown in FIG. 47.

Experiment [3] concerns Sp1. The experiment in a line: Sp1 binding to Cyclin D1 promoter, ChIP, HT-29. It is filed as cell-based, human. The conditions noted are these: HT-29, ChIP. The procedure: Based on overlapping transcription factor binding sites on Cyclin D1 gene promoter region (FIG. 33A), increased binding of a negative regulator KLF4 may replace the binding of a positive regulator Sp1. In vivo KLF4 and Sp1 binding to Cyclin D1 promoter was shown by chromatin immuno-precipitation assay (ChIP) (FIG. 33B).
Chromatin immunoprecipitation (ChIP) was performed as follows. Cell lysates from HT-29 cells (5.5×10^5 cells in three 15 cm-culture plates in each experimental group) were prepared at the end of the indicated experiments, and ChIP assays were performed using anti-KLF4 and anti-Sp1 antibodies (Santa Cruz Biotechnology Inc.) and ChIP-ITTM kit (Active Motif, Carlsbad, Calif.) by following the manufacturer's instruction. The primers encompassing-231 to -92 region of Cyclin D1 promoter; 5′ primer (5′-CGGACTACAGGGGCAA-3′) [SEQ ID NO:1] and 3′ primer (5′-GCTCCAGGACTTTGCA-3′) [SEQ ID NO:2] were synthesized at Invitrogen.

For experiment [4], the system named is human leukemia CCRF-CEM cells. As to the kind of experiment: Cell cycle analysis by flow cytometry, CCRF-CEM. The conditions noted are these: 0.25-1 μM, 24 hours. It is filed as cell-based. As for the experimental part:
To test the ability of compounds of Formula I to block cell cycle progression, compound 3 was incubated with human colon carcinoma HT-29 or human leukemia CCRF-CEM cells to determine alterations in populations of cells at different stages of the cell cycle using flow cytometric analysis. HT-29 cells were maintained as described in Example 13. CCRF-CEM cells used in this example and subsequent examples were maintained as suspension cells in a growth medium; RPMI-1640 medium (Sigma, St. Louis, Mo.), supplemented with 2 mM L-glutamine (Gibco, Grand Island, N.Y.), 10% fetal bovine serum (FBS) (Multicell, WISENT Inc. St-Bruno, QC), antibiotic-antimycotic (Multicell), at 37° C. in a 5% CO2-humidified incubator.
The assay was carried out as follows. For HT-29 cells, 1×10^6 cells in 10 mL volume of the growth medium were seeded in 100 mm dishes. For CCRF-CEM cells, 3×10^6 cells in 10 mL volume of the growth medium were seeded in 25 cm^2 flask. […] The fluorescence of stained cells was analyzed using FACScan flow cytometer and the Cell Quest program (BD Biosciences, San Jose, Calif.). Data were evaluated using Modfit software (Verity software House, Topsham, Me.). Values were determined by gate analysis of flow cytometric plots. […]

Like-named read-outs stand apart in the source and are kept apart here. A value given as a limit tells only on which side of the number the result lay.

Take `Cc1[nH]c2ccccc2c1-c1nc2c3cccnc3c3ncccc3c2[nH]1` [Compound 3]: the GI50 – broadly, the concentration giving 50% growth inhibition – in experiment [1] (Homo sapiens, NCI 60-cell line assay, read-out: average GI50 of all cell lines tested) is 620 nM; in experiment [1] (Homo sapiens, span of average values in the NCI panel (FIG. 2), read-out: GI50 average values), 610 to 12300 nM; in experiment [1] (average over human tumour cell lines of the NCI panel (FIG. 1), read-out: average GI50 (growth inhibition by 50%)), less than 2000 nM. Moreover, the “selectivity among cancer types of the NCI panel” value in experiment [1] (in words) was “selective inhibitor of colon, leukemia, non-small cell lung cancer, and prostate cell lines”. The “PAR absorbance of MT (removal of zinc from metallothionein)” value in experiment [2] is given as “Dose-dependent decreases in PAR absorbance”. Besides, the “Sp1 binding to Cyclin D1 promoter” value in experiment [3] is “decreased Sp1 binding”. Moreover, the cell cycle progression entry in experiment [4] is “induced a block in cell cycle progression at the G1 phase”.
